The test system of test [1] is conversion of NAD to NADH in the presence of IMP. Put plainly: Functional activity of modified IMPDH multimers: conversion of NAD to NADH measured spectrophotometrically at 340 nm. It counts as biochemical, human. The settings on record: partially purified protein, 0.40 mM IMP, 0.40 mM NAD, 37° C. The procedure: Polypeptides of the modified IMPDH-DKT, -SPS, -SPT, and -AGRP were isolated and partially purified using a blue dye affinity chromatographic step. All steps were performed at 4° C. unless otherwise noted. The frozen cell pellets (e.g., described in Example 1) were thawed on ice, and resuspended in 10 mL of Buffer A (25 mM Tris, pH 8.2, 20 mM KCl, 10% glycerol (v/v), 1 mM EDTA, 5 mM DTT, and 1 μg/mL leupeptin). The cells were lysed by 2×20 second sonication pulses using a ¼″ Microtip on a Branson model 450 sonifier (set on 2.5 power setting), and excessive foaming was carefully avoided. […] The samples were evaluated for the presence of the modified IMPDH polypeptides and to approximate the purity using standard SDS-PAGE methods, with Coomassie blue staining. For each of the modified IMPDH polypeptides, it was determined that the purity of the Buffer C fractions contained approximately 75% modified IMPDH polypeptide. The total protein content was quantitated using the Bradford assay method (Bradford, M. M., 1976, Anal. Biochem., 72: 248), with Biorad protein reagent (product #500-0006) and using BSA as a protein standard.
To evaluate the functional activity of the modified IMPDH polypeptides, the conversion of NAD to NADH was measured spectrophotometrically at 340 nm, 37° C. […] The production of NADH was determined by δOD^340 (ε=6220 M^−1 cm^−1), measured for 5 min. […]

The target in another test is T1, “DKT”-IMPDH-II (Homo sapiens, UniProt P12268, DEL111-240/K241D/Q243T).
T1 construct: The full-length, human, type II impdh cDNAs were used as templates; made in house; host or cells: E. coli BL21(DE3), pET24a
T1 sequence (P12268 with tags, fused parts or gaps DEL111-240/K241D/Q243T): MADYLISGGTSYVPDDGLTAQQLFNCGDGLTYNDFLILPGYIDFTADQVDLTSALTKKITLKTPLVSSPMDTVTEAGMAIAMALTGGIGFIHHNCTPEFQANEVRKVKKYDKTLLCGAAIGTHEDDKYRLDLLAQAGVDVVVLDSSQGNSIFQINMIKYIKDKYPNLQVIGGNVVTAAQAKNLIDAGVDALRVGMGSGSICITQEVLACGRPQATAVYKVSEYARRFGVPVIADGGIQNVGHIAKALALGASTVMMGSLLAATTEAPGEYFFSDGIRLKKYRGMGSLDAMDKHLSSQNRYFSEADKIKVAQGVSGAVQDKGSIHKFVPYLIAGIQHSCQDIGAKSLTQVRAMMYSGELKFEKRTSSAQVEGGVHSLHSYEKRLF
In words: Steady state enzyme kinetics: inhibition of IMPDH-DKT by XMP and MPA. It counts as biochemical. Particulars: for Inhibition type: steady state kinetics.

“wild-type IMPDH holoenzyme: wild-type human type II IMPDH holo-enzyme, SEQ ID NO:49 [reference compound]”: the NADH produced result in test [1] is on record as “approximately 1.00 μmoles/min mg protein”.
For `COc1c(C)c2c(c(O)c1C/C=C(\C)CCC(=O)O)C(=O)OC2` [MPA, Mycophenolic acid], the Inhibition type result at “DKT”-IMPDH-II is “Uncompetitive vs. IMP”.
The term Ki denotes the equilibrium dissociation constant of an inhibitor or competing ligand from its target. A higher Ki goes with lower affinity. On to `O=c1[nH]c(=O)c2ncn([C@@H]3O[C@H](COP(=O)(O)O)[C@@H](O)[C@H]3O)c2[nH]1` [XMP, xanthosine-5′-monophosphate], for which, at “DKT”-IMPDH-II (buffer D, 50 nM protein), affinity was put at a Ki of 67 ± 5 µM. For the same compound, the Inhibition type entry on “DKT”-IMPDH-II is recorded as “Competitive vs. IMP”.

The values are drawn from patent US20020068346A1, “Modified inosine 5'-monophosphate dehydrogenase polypeptides and uses thereof” (priority 2000, published 2002).
